Data: ChEMBL document CHEMBL1201862, “PubChem BioAssay data set” (2004)
Counter-ions that a name gives are not always drawn. Values belong to the compound of their own block, whether it stands above or below them. Activity calls are given as the source filed them.

Assays:
Phospholipase D1 = target: T1, Phospholipase D1 (Homo sapiens, UniProt Q13393); assay: cellular phospholipase D1 inhibition IC50 – cell-based, dose response (AID 602151); format: functional;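 also: cellular PLD1 assay in Calu-1 cells stimulated with PMA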
T1 sequence (Q13393 whole entry): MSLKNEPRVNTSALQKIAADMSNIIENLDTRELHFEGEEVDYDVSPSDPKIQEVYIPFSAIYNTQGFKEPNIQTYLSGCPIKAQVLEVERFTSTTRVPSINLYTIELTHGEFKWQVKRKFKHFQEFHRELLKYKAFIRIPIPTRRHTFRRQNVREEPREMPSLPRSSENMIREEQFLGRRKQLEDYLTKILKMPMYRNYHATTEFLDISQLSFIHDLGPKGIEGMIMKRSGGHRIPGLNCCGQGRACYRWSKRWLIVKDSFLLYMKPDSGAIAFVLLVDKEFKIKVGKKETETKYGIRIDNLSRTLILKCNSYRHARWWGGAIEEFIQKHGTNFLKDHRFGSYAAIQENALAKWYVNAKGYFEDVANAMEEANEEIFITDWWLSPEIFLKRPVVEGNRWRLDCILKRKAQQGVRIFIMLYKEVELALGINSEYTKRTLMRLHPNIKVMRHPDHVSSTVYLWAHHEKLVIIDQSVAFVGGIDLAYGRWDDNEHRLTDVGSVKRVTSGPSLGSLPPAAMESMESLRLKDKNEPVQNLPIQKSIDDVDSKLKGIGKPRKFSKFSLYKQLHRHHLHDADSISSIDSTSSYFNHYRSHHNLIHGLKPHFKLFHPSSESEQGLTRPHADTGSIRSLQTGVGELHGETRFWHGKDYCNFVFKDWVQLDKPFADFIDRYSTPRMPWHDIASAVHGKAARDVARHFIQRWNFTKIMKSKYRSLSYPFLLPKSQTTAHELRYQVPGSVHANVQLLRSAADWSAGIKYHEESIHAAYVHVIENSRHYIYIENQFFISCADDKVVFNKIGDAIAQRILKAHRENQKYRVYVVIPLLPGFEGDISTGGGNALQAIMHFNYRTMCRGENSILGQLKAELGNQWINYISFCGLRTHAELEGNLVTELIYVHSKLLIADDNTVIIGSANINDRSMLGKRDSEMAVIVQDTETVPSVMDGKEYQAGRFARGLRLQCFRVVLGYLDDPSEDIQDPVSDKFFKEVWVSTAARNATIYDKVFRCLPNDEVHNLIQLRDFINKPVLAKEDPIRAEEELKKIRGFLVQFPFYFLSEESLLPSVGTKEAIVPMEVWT

Phospholipase D2 = Phospholipase D2 (Homo sapiens, UniProt O14939); assay: cellular phospholipase D2 inhibition IC50 – cell-based, dose response (AID 602147); format: functional;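 also: cellular assay in HEK293 cells overexpressing GFP-tagged PLD2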
Phospholipase D2, sequence (O14939 whole entry): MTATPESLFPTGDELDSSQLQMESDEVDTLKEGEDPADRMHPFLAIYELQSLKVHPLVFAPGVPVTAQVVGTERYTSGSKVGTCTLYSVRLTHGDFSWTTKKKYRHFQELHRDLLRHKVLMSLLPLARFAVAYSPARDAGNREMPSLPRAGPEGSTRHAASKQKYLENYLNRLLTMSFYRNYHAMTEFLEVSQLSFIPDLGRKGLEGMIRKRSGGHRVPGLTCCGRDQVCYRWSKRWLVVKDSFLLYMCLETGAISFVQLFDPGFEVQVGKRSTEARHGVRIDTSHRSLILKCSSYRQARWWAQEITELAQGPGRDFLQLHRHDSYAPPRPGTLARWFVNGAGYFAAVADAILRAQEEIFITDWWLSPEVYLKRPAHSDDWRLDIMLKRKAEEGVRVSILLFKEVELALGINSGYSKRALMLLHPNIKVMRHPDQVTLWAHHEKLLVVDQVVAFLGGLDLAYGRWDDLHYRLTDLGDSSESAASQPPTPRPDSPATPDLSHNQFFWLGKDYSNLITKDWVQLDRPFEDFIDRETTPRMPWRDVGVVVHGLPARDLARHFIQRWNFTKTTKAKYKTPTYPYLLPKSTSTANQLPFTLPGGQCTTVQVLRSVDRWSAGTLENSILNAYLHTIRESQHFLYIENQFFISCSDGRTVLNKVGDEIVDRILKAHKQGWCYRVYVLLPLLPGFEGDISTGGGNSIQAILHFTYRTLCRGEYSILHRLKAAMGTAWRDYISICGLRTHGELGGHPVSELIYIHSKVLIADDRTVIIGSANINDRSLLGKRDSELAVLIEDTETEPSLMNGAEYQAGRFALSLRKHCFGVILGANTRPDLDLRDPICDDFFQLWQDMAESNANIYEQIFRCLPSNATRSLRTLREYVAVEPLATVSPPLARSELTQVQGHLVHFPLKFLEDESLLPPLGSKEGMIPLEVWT

[1] = NIH-3T3 fibroblast cytotoxicity, dose response, cytotoxicity control, cell-based, fluorescence, Alamar Blue, secondary assay (AID 2327); format: functional;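 also: NIH-3T3 mouse fibroblasts cultured with fluconazole at 8 µg/mL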
[2] = test system: Streptococcus sp. 'group A'; assay: Streptococcus pyogenes SK(-)GAS viability under kanamycin – luminescence, BacTiterGlo, confirmation, counter-screen for streptokinase expression inhibitor project, dose response (AID 1900); format: functional, organism-based
[3] = fluconazole-exposed Candida albicans growth modulators – fluorescence, retest, confirmation (AID 2467); format: functional, cell-based
Streptococcus = assay: GAS UMAA2166 growth inhibition – luminescence, BacTiterGlo, counter-screen for streptokinase expression inhibitor project, dose response (AID 1915); format: functional, organism-based;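 also: potency for reduction of bacterial viability or growth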
[4] = target: Heat shock protein HSP 90-alpha (Homo sapiens, UniProt P07900); format: functional, organism-based
Vero = assay: viability of Vero cells under compound – cytotoxicity control for flavivirus capping enzyme inhibitors (AID 588742); format: functional; conditions: Chlorocebus sabaeus
INS1 = assay: INS-1E survival protection against cytokine death – cell-based, luminescence, retest, dose response (AID 449756); format: functional; conditions: Rattus norvegicus;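 also: cell death triggered by IL-1 beta plus TNF-alpha plus IFN-gamma mixture; protective hits raise ATP signal compared with cytokine alone wells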
[5] = target: Glucose-6-phosphate 1-dehydrogenase (Homo sapiens, UniProt P11413); assay: inhibition of Homo sapiens G6PD, dose series – biochemical, fluorescence, selectivity assay for P. falciparum G6PD inhibitor project, dose response (AID 504792); format: functional
Glucose-6-phosphate 1-dehydrogenase, sequence (P11413 whole entry): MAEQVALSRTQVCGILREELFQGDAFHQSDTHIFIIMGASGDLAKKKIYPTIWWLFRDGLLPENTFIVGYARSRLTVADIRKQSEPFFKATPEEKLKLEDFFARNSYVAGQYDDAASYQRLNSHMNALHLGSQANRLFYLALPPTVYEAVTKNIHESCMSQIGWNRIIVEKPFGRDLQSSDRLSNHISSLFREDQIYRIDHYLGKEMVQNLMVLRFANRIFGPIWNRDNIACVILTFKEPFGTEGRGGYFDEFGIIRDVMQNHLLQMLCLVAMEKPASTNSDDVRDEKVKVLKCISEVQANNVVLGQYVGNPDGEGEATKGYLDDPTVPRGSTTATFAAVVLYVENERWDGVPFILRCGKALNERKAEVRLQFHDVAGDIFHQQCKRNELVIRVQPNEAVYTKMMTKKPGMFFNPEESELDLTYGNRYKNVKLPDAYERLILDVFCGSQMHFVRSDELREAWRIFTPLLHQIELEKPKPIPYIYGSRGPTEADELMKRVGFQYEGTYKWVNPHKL

[6] = target: T2, Apoptotic protease-activating factor 1 (Homo sapiens, UniProt O14727); format: functional
T2 sequence (O14727 whole entry): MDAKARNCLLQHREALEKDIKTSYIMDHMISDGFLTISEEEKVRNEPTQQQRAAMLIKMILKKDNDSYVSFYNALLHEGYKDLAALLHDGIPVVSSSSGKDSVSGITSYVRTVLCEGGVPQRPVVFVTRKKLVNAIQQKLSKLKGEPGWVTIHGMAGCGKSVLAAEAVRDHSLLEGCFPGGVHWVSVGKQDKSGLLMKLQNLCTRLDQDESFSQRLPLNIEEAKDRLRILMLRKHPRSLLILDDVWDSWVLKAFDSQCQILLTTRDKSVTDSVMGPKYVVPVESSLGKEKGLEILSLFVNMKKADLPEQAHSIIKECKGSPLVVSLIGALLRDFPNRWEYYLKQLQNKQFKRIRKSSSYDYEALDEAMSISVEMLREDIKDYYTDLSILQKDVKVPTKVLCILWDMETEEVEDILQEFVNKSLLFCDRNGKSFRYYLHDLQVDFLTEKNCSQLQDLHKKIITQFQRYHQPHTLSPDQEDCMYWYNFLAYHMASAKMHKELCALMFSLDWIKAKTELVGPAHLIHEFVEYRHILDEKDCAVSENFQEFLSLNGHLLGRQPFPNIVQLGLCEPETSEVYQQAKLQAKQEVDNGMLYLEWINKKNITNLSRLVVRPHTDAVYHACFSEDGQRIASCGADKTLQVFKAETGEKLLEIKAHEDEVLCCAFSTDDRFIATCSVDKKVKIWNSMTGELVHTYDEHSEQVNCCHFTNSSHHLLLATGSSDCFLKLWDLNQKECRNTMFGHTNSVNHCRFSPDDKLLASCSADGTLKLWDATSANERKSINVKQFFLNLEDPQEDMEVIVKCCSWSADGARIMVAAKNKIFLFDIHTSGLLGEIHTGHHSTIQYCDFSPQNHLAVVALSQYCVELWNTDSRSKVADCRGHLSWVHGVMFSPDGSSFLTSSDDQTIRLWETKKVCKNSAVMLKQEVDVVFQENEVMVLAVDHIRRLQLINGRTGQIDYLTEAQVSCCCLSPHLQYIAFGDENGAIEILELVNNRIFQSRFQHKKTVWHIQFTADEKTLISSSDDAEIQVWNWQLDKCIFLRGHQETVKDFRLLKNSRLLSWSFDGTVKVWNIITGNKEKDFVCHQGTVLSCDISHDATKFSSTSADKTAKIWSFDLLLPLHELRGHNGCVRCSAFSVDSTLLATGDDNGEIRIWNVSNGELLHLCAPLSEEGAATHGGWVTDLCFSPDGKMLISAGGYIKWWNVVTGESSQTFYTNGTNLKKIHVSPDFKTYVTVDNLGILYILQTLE

Structure (SMILES): O=C(N[C@@H](Cc1ccccc1)CN1CCC(n2c(=O)[nH]c3ccccc32)CC1)c1cnc2ccccc2c1
IC50 (Phospholipase D1): 2.8 µM (active)
IC50 (Phospholipase D2): 20 µM (active)

Structure (SMILES): COc1cccc(N2CCN(CCNC(=O)c3ccc4ccccc4c3)CC2)c1
IC50 (Phospholipase D1): 10 µM (active)
IC50 (Phospholipase D2): 18 µM (active)

Structure (SMILES): C[C@@H](CN1CCC(n2c(=O)[nH]c3ccc(F)cc32)CC1)NC(=O)c1ccc(F)c(F)c1
IC50 (Phospholipase D1): 0.005 µM (active)
IC50 (Phospholipase D2): 0.315 µM (active)

Structure (SMILES): CC(=O)NC(c1ccccc1)c1cc(Cl)c2cccnc2c1O (stereo not given)
EC50 [1]: 4.24 µM (active)
EC50 [2]: 1.73 µM (active)
EC50 [3]: 0.514 µM (active)
EC50 (Streptococcus): 2.71 µM (active)
AC50 [4]: 3.79 µM (active)
CC50 (Vero): 6.04 µM (active)
AC50 (INS1): 1.2 µM (active)

IC50 [5]: 65.4 µM (inactive)
IC50 [6]: 26.6 µM (active)
Structure (SMILES): CCOC(=O)Nc1ccc(NCc2ccc(F)cc2)nc1N [FLUPIRTINE MALEATE]
